Assay [1] deals with T1, HSA (Homo sapiens, UniProt P02768).
T1 construct: purchased Sigma-Aldrich
Nature of the assay: Quenching of HSA intrinsic fluorescence by MCD, synchronous fluorescence scanning. As to conditions: for decrease of the intensity of the SFS band of HSA, tyrosine: Δλ = 15 nm; for decrease of the intensity of the SFS band of HSA, tyrosine / decrease of the intensity of the SFS band of HSA, tryptophan: cMCD up to 5.3 × 10^−5 mol L^−1; for decrease of the intensity of the SFS band of HSA, tryptophan: Δλ = 60 nm. The format is binding. The procedure: In order to determine the binding sites of HSA when interacting with MCD and to evaluate possible changes in these sites, the fluorescence spectra of tyrosine and tryptophan groups of HSA in the presence of MCD were measured in the synchronous fluorescence scanning (SFS) mode. The positions of the SF spectra of protein amino acid residues depend on their microsolvation (micropolarity of the medium). Thus, SFS allows for obtaining data on the effect of complexation on the microenvironment of fluorophore groups of protein molecules.
Quenching of intrinsic HSA fluorescence was analyzed using the Stern–Volmer and Lehrer–Leavis relationships (see Equations (3) and (4)). The experimental dependences approximated by linear anamorphoses (R^2~0.9–0.98) were better in the coordinates of the Lehrer–Leavis model than in the Stern–Volmer model (the Stern–Volmer plots were nonlinear). The Lehrer–Leavis model assumes partial accessibility of HSA chromophores for quenching by MCD (the resulting quenching constants are shown in Table 6).
(§1) Absorption spectra were recorded on an SF-2000 spectrophotometer (Experimental-Construction Company “Spectrum”, St. Petersburg, Russia); fluorescence and fluorescence excitation spectra were recorded on a Fluorat-02-Panorama spectrofluorimeter (Group of Companies “Lumex”, St. Petersburg, Russia). The fluorescence and fluorescence excitation spectra were corrected for the spectral characteristics of the instrument (excitation channel signal) and sample transmission. Changes in the intrinsic fluorescence of HSA upon binding of MCD (in the presence of the dyes) were recorded in the synchronous fluorescence scanning (SFS) mode. In SFS mode, when registering spectra, a fixed difference Δλ= λfl − λex is maintained for the channels of excitation and registration. Synchronous scanning spectra were obtained at Δλ = 15 nm (fluorescence of tyrosine residues in the HSA molecule) and Δλ = 60 nm (fluorescence of tryptophan). The spectra were measured in 1 cm quartz semi-micro cells (Bio-Rad, Hercules, CA, USA).
The Stern–Volmer (Equation (3)) and Lehrer–Leavis (Equation (4)) dependences were used to analyze the results of measurements of HSA intrinsic fluorescence (synchronous scanning mode) in the presence of MCD [56, 57]. (3) I0/I=1 + KSV[Q] (4) I0/(I0−I)=1 /α+ 1/(αKSV[Q]) where I0 and I are the fluorescence intensities in the absence and in the presence of a quencher, respectively; [Q] is the quencher concentration; KSV is the Stern–Volmer quenching constant; and α is the proportion of fluorophores in the biomolecule available to the quencher in the Lehrer–Leavis model. […]
1. Spectral‐Fluorescent Titration
In experiments on spectral‐fluorescence titration, MCD 1–4 were dosed from their concentrated st ock solutions in EtOH. Microvolumes (~0.5–5 μL) were dosed into the measuring cell (dilution 1:500 – 1:1000).
In experiments with biomacromolecules, microvolumes of concentrated stock solutions of dsDNA, ssDNA and HSA were injected directly into the cells. Spectral‐fluorescent characteristics of MCD in complexes with biomacromolecules were studied by titration of dye solutions (cdye ~ 1 – 2 × 10–6 mol L–1) with increasing concentrations of biopolymers. Measurements of the intrinsic fluorescence of HSA in the presence of MCD were carried out at a constant concentration of HSA (cHSA ~ 2.0 × 10–5 mol L–1) by titration with increasing concentrations of dyes. After stirring, the absorption and fluorescence spectra of the dyes were recorded several times. Upon registration, the fluorescence and fl uorescence excitation spectra were corrected for the spectral characteristic of the excitation channel and for the absorption of […]
2. Fluorescence Quantum Yields
Determination of the fluorescence quantum yields of MCD 1–4 was performed using the standard […]

Assay [2] has as its system ssDNA. Nature of the assay: Spectral fluorescent titration of the dyes with ssDNA in PBS. As to conditions: for φfl^b, fluorescence quantum yield of the dye in the presence of biopolymer: cssDNA~5 × 10^−5 mol L^−1; for LOD: detection of ssDNA; for LOQ: quantification of ssDNA; for K1Sc, complexation constant (Scatchard) / nHill, Hill coefficient / KeffHill, effective complexation constant (Hill) / KeffBH, effective complexation constant (Benesi–Hildebrand) / αb, proportion of bound dye / K2Sc, complexation constant (Scatchard) / Fmax/F0, fluorescence growth at 100% binding / nSc, stoichiometric coefficient (Scatchard): ssDNA; for KeffHill, effective complexation constant (Hill) / KeffBH, effective complexation constant (Benesi–Hildebrand): PBS buffer; for KeffBH, effective complexation constant (Benesi–Hildebrand): fluorescent titration; for αb, proportion of bound dye: cbiomol = 5 × 10^−5 mol L^−1; for K2Sc, complexation constant (Scatchard): constant and nSc both varied; for Fmax/F0, fluorescence growth at 100% binding: from the Benesi–Hildebrand dependence; for nSc, stoichiometric coefficient (Scatchard): per one base; for decrease of the observed extinction coefficients: cssDNA~8 × 10^−5 mol L^−1. Format: binding, chick.
Excerpt: Complexation of MCD 1–4 with DNA (double-stranded and single-stranded) and with human serum albumin (HSA) was studied by spectral fluorescent methods in a wide range of biopolymer concentrations (cdsDNA = 0–1.5 × 10^−4 mol L^−1; cssDNA = 0–1.4 × 10^−4 mol L^−1; cHSA = 0–1.4 × 10^−4 mol L^−1 in PBS buffer). The absorption, fluorescence, and fluorescence excitation spectra of MCD 1 and 3 in the presence of dsDNA are shown in Figure 3 and Figure 4, respectively.
The complication of chemical equilibrium, and the variety of interactions between MCD and biopolymer (dye aggregation/deaggregation, the possibility of forming complexes of several types with DNA/HSA) makes it problematic to determine the exact values of the complexation constants of the dyes with DNA. The values of the effective equilibrium constants of the complexation reaction of MCD with biopolymers (Keff, L mol^−1, see Table 7) were estimated from spectral fluorescent data. In this case, we had to assume a simple equilibrium MCD (monomer, free) ⇄ MCD (monomer, bound). For these purposes, we used the Benesi–Hildebrand [59], Hill, and Scatchard formalisms (See Supplementary Materials, Equations (S9)–(S13)). For dsDNA, fitting according to the modified Scatchard equation was carried out assuming one dye molecule per one DNA turn (K1Sc at nSc = const = 10 b.p.), as well as varying both the constant (K2Sc) and the stoichiometric coefficient (nSc). In the case of ssDNA, nSc is given per one base; for HSA, nSc = 1.
Single-stranded form of DNA (single-stranded DNA; ssDNA) was obtained according to the method described in [74]. The concentrations of DNA and the dyes were controlled spectrophotometrically. Molar extinction coefficient of dsDNA (ε, L⋅mol^−1⋅cm^−1) was taken to be 13,200 L mol^−1 cm^−1 (per base pair); for ssDNA, ε = 9045 L mol^−1 cm^−1 (per one base) was used. For MCD 1 and 2 in an aqueous buffer solution, we used extinction coefficients ε = 40,000 and 68,000 L mol^−1 cm^−1, respectively, which were taken from. For MCD 3 and 4, the molar extinction coefficients in ethanol solution were 69,200 and 49,000 L mol^−1 cm^−1 (taken from). […] Spectral fluorescent characteristics of MCD in complexes with biomacromolecules were studied by titration of dye solutions (see Supplementary Materials). The thermal dissociation (“melting”) of dsDNA in the presence of MCD was studied spectrophotometrically (λabs = 260 nm), the sample was heated (t° = 30–95 °C) using Peltier cells, and the temperature was controlled using a thermocouple. Melting points tm, corresponding to 50% hyperchromia of DNA samples were obtained.
as §1
The equilibrium constants of MCD complexation with biomolecules (Ka, L mol^−1) were obtained from fluorescence spectra using the Benesi–Hildebrand [59], Hill, and Scatchard equations [61] (see Supplementary Materials, Equations (S9)–(S13)). […]

Structures are written as SMILES.

T1 sequence (P02768 25-609): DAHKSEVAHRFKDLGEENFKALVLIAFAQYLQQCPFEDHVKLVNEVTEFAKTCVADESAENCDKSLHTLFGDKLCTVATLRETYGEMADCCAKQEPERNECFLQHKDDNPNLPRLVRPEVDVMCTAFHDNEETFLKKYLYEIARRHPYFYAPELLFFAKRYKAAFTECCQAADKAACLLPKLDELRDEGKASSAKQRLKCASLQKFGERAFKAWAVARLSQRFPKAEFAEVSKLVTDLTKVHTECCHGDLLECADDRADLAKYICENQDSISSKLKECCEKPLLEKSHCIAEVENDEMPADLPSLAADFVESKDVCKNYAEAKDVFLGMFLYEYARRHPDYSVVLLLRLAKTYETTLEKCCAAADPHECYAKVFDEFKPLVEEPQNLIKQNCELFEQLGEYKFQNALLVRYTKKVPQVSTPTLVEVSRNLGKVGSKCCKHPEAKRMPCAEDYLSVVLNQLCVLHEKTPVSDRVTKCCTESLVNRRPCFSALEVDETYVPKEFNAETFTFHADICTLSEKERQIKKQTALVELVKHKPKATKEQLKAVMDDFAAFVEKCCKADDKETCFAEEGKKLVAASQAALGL

Take `CCN1/C(=C/c2sc3ccccc3[n+]2CC)Sc2ccccc21` [MCD 3]: in assay [1] (Trp, SFS Δλ = 60 nm), the “KSV, Stern–Volmer quenching constant (Lehrer–Leavis model)” value (from here on “KSV, Stern–Volmer quenching constant”) amounted to 6.12e+07 L/mol and the “α, proportion of fluorophores available to the quencher (Lehrer–Leavis model)” value (“α, proportion of fluorophores available” below) was determined as 0.82. In assay [1] (Tyr, SFS Δλ = 15 nm), the “KSV, Stern–Volmer quenching constant” value amounted to 112000 L/mol and the “α, proportion of fluorophores available” value amounted to 0.15. Also, in assay [1], the “decrease of the intensity of the SFS band of HSA, tyrosine” value (from here on “decrease of the intensity … tyrosine”) is 11% and the “decrease of the intensity of the SFS band of HSA, tryptophan” value (“decrease of the intensity … tryptophan” for short) stood at 6%. Besides, in assay [2], the “φfl^b, fluorescence quantum yield of the dye in the presence of biopolymer” value (shortened to “φfl^b, fluorescence quantum yield”) amounted to 4.7 ± 0.5%; the LOD turned out to be 87 nM; the LOQ was 260 nM; the K1Sc, complexation constant (Scatchard) worked out at 112000 L/mol. In addition, in assay [2], the “nHill, Hill coefficient” value was 0.76; the KeffHill, effective complexation constant (Hill) is 2940 L/mol; the KeffBH, effective complexation constant (Benesi–Hildebrand) was 11600 L/mol; the “αb, proportion of bound dye” value came out at 37%. Moreover, in assay [2], the K2Sc, complexation constant (Scatchard) was found to be 430000 L/mol; the “Fmax/F0, fluorescence growth at 100% binding” value (“Fmax/F0 … at 100% binding” for short) turned out to be 71; the “nSc, stoichiometric coefficient (Scatchard)” value (“nSc … (Scatchard)” below) is given as 37.

For the compound `CCN1/C(=C/c2ccc3ccccc3[n+]2CC)C=Cc2ccccc21` [MCD 4], in assay [1] (Trp, SFS Δλ = 60 nm), the “KSV, Stern–Volmer quenching constant” value came to 21000 L/mol and the “α, proportion of fluorophores available” value came out at 0.60. Besides, in assay [1] (Tyr, SFS Δλ = 15 nm), the “KSV, Stern–Volmer quenching constant” value is 38200 L/mol and the “α, proportion of fluorophores available” value came out at 0.33. Further, in assay [1], the “decrease of the intensity … tyrosine” value is 21% and the “decrease of the intensity … tryptophan” value came to 22%. Also, in assay [2], the “φfl^b, fluorescence quantum yield” value is approximately 1.4 ± 0.2%; the “decrease of the observed extinction coefficients” value came out at 54%; the LOD worked out at 760 nM; the LOQ was 2300 nM. Also, in assay [2], the K1Sc, complexation constant (Scatchard) was determined as 65000 L/mol; the “nHill, Hill coefficient” value is 0.57; the KeffHill, effective complexation constant (Hill) came out at 350 L/mol; the KeffBH, effective complexation constant (Benesi–Hildebrand) is 6800 L/mol. In assay [2], the “αb, proportion of bound dye” value is on record as 25%; the K2Sc, complexation constant (Scatchard) was determined as 19500 L/mol; the “Fmax/F0 … at 100% binding” value came to 61; the “nSc … (Scatchard)” value came out at 3.

`CC[N+](CC)(CC)CCC[n+]1ccc(/C=C2\Sc3ccccc3N2C)c2ccc(O)cc21` [MCD 1]: in assay [1] (Trp, SFS Δλ = 60 nm), the “KSV, Stern–Volmer quenching constant” value was 40400 L/mol and the “α, proportion of fluorophores available” value came out at 0.40. In assay [1] (Tyr, SFS Δλ = 15 nm), the “KSV, Stern–Volmer quenching constant” value came out at 21800 L/mol and the “α, proportion of fluorophores available” value worked out at 0.61. Further, in assay [1], the “decrease of the intensity … tyrosine” value is reported as 31% and the “decrease of the intensity … tryptophan” value was 26%. Also, the “Ifl/Ifl0, relative increase in the fluorescence intensity” value in assay [2] (cssDNA = 5 × 10^−5 mol L^−1) is ~ 40. Moreover, in assay [2], the “φfl^b, fluorescence quantum yield” value is 12 ± 1.5%; the “decrease of the observed extinction coefficients” value stood at 40%; the LOD amounted to 40 nM; the LOQ is 120 nM. Further, in assay [2], the K1Sc, complexation constant (Scatchard) stood at 228000 L/mol; the “nHill, Hill coefficient” value is listed as 0.7; the KeffHill, effective complexation constant (Hill) is 2830 L/mol; the KeffBH, effective complexation constant (Benesi–Hildebrand) is 24200 L/mol. For the same compound, in assay [2], the “αb, proportion of bound dye” value came to 60%; the K2Sc, complexation constant (Scatchard) was 159000 L/mol; the “Fmax/F0 … at 100% binding” value was found to be 60.9; the “nSc … (Scatchard)” value was found to be 2.

For the origin of these results see publication PMC10531095, “Photonics of Some Monomethine Cyanine Dyes in Solutions and in Complexes with Biomolecules” (International Journal of Molecular Sciences, 2023).
